# Key:
# KRAS G12D in AGS cells = assay: pERK inhibition assay, AGS; format: cell-based, human; details: Homo sapiens, 4 hours incubation
# Summary of the method: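 NCI-H358, AGS and SW620 cells in RPMI-1640/10% FBS were plated overnight, then exposed to compound (0.5% DMSO final) for 4 h. After fixation and permeabilization, phospho-ERK was quantified by in-cell ELISA (HRP secondary, TMB, OD450); IC50 from a 4-parameter sigmoidal fit.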
# [1] = target: KRAS G12D binding to BRAF (Homo sapiens (Human), UniProt P01116+P62937, G12D); assay: KRAS-BRAF with CYPA (50 nM) interaction assay (TR-FRET), G12D; details: GMPPNP loaded 6His-KRAS, GST-BRAF RBD
# Summary of the method: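 Buffer 25 mM HEPES pH 7.4, 100 mM NaCl, 5 mM MgCl2, 10 μM GMPPNP, 0.1% BSA; final 50 nM tagless CYPA, 6.25 nM GMPPNP-loaded 6His-KRAS mutant, 1 nM GST-BRAF RBD. Compounds 16-point 3-fold series from 10 μM, 3 h; anti-6His-XL665/anti-GST-Tb added, 1.5 h; 665/615 nm ratio decrease versus DMSO.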
# KRAS G12C-BRAF complex = KRAS G12C-BRAF complex (Homo sapiens (Human), UniProt P01116+P62937, G12C); assay: KRAS G12C-BRAF NanoBit assay; format: cell-based; details: HEK293 cells, SmBit-KRAS G12C and BRAF RBD-LgBit, 3 hours incubation
# Protocol: This assay is to measure the ability of tested compounds in disruption of the KRAS G12C-BRAF complex at the cellular level, we established the NanoBit cellular assay in mammalian HEK293 (ATCC) cells. HEK293 cells were grown and maintained using DMEM medium (Thermo Fisher Scientific) with 10% fetal bovine serum and 1% penicillin/streptomycin. Both KRAS G12C and BRAF RBD were cloned into the NanoBit vectors ([…] vectors system, Promega) with the orientations SmBit-KRAS G12C and BRAF RBD-LgBit, respectively, and co-transfected into HEK293 cells. Cells were then selected with 100 μg/mL Hygromycin B (10687010, Thermo Fisher) and Blasticidin (5 μg/mL) for 4 weeks to get the stable cell pool. On the day of the assay, 75 nL of compound solution was presented in a 384-well assay plate as a 16-point 3-fold dilution starting from a final concentration of 30 μM in DMSO. Then cells were seeded at 10,000 cells/25 μL/well in a 384-well plate. After 3 hours of incubation, 6 μL of volume of Nano-Glo® Live Cell Substrate (Promega) was added into each well. Monitor luminescence using ultra384 model in Envision at 20 minutes. Compounds that facilitate disruption of the KRAS G12C-BRAF RBD complex were identified as those eliciting a decrease of luminescence relative to DMSO control wells.
# [2] = Human hepatocytes stability assay; format: in vitro ADME
# Summary of the method: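 Compound at 1 μM incubated with cryopreserved suspension hepatocytes (1×10^6 cells/mL) in supplemented Williams' E Medium at 37° C, 5% CO2, with shaking. Reactions quenched with methanol at 2, 10, 20, 40, 60 and 120 min; parent depletion followed by LC-MS/MS.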
# Sequence of KRAS G12C-BRAF complex (P01116-2 other isoform, or with tags, fused parts or gaps G12C): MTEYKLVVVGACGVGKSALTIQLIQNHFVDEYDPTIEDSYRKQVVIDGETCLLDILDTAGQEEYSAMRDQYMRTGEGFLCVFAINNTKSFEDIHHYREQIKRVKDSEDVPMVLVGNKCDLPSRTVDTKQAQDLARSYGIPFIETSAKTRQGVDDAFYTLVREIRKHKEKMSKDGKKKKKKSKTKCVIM
# Sequence of KRAS G12C-BRAF complex (P62937 whole entry): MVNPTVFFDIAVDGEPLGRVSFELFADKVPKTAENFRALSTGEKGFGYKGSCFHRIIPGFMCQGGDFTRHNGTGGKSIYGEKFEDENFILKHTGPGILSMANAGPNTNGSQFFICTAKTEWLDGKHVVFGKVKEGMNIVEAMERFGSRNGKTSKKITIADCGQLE
# Sequence of KRAS G12D binding to BRAF (P01116-2 other isoform, or with tags, fused parts or gaps G12D): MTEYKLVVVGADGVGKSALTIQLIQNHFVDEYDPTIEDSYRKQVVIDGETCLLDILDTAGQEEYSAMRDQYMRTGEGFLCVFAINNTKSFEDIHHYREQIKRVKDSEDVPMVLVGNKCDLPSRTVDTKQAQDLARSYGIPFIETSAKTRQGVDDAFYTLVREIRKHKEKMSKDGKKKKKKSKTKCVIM
# Sequence of KRAS G12D binding to BRAF (P62937 whole entry): as the sequence (P62937 whole entry) above
compound,measurement,setting,value
"CO[C@@H](C)c1ncc(N2CCOCC2)cc1-c1c2c3cc(ccc3n1CC(F)(F)F)-c1csc(n1)C[C@H](NC(=O)[C@H](C(C)C)N(C)C(=O)[C@H]1CCN(C(=O)[C@H](F)Cl)C1)C(=O)N1CCC[C@H](N1)C(=O)OCC(C)(C)C2 (atropisomer, axis not shown; (M)) [Example 25, (3S)-1-[(2R)-2-chloro-2-fluoro-acetyl]-N-[(1S)-1-[[(7S,13S)-(20M)-20-[2-[(1S)-1-methoxyethyl]-5-morpholino-3-pyridyl]-17,17-dimethyl-8,14-dioxo-21-(2,2,2-trifluoroethyl)-15-oxa-4-thia-9,21,27,28-tetrazapentacyclo[17.5.2.12,5.19,13.022,26]octacosa-1(25),2,5(28),19,22(26),23-hexaen-7-yl]carbamoyl]-2-methyl-propyl]-N-methyl-pyrrolidine-3-carboxamide]",IC50,KRAS G12D in AGS cells,0.013 µM
same,IC50,[1],> 10 µM
same,IC50,KRAS G12C-BRAF complex,0.02 µM
same,CL_hep (Human),"[2]; 1 μM compound, human hepatocytes 1×10^6 cells/mL",9.8 mL/min/kg
same,Clearance Category,[2]; human hepatocytes,medium (16.24<CL_hep (mL/min/kg)>6.96 is medium clearance)

# — US20250163072A1, “MACROCYCLIC COMPOUNDS FOR THE TREATMENT OF CANCER” (Hoffmann-La Roche Inc., priority 2021, published 2025)
